The source of these data is patent publication US20050004044A1, “Use of orsaponin [3beta, 16beta, 17 alpha-trihydroxycholost-5-en-22-one 16-0-(2-0-4-methoxybenzoyl-beta-D-xylopyranosyl)-(1->3)-(2-0-acetyl-alpha-L-arabinopyranoside)] or OSW-1 and its derivatives for cancer therapeutics” (priority 2003, published 2005).

For orientation: IC50 means the concentration that inhibits the measured activity by half.

Where only a bound is given, the exact number is not on record here.

One assay concerns ML-1 cells. In words: Mitochondrial transmembrane potential (rhodamine-123), ML-1. The format is cell-based, human. To be noted: ML-1, 1 nM, 16 and 24 h. Here is the method:
FIG. 11. Effect of orsaponin (OSW-1) on mitochondrial transmembrane potential ML-1 cells. The parental ML-1 line and its mutant with mitochondrial respiration defect, clone C19, were incubated with 1 nM OSW-1 for the indicated times. Change in mitochondrial transmembrane potential was measured by cytometry analysis, using rhodamine-123 as a potential-sensitive fluorescent probe.
(§1) 3. Analysis of the Mitochondrial Transmembrane Potential. To evaluate the role of mitochondrial respiration in the cytotoxicity of OSW-1, changes in the potential of mitochondrial membrane were analyzed. Following the treatment of cells with OSW-1 for different time periods, cells were incubated with rhodamine-123 which is a potential-sensitive dye. Cytometric analysis was used to record changes in mitochondrial potential. […]
The effect of OSW-1 on mitochondrial transmembrane potential of ML-1 cells and the corresponding mitochondrial respiration defective mutant cell line C19 were analyzed by incubating with 1 nM OSW-1 for 4, 16 and 24 hours. Change in mitochondrial transmembrane potential was measured by cytometry analysis, using rhodamine-123 as a potential-sensitive fluorescent probe and are depicted in FIG. 11.

In another assay the test system is primary CLL cells. Briefly: cells. The format is cell-based. Here is the method: FIG. 7. Effect of Orsaponin (OSW-1) on cell survival in primary human leukemia cells isolated from patients with chronic lymphocytic leukemia (CLL). Freshly isolated primary CLL cells were incubated with the indicated concentrations of OSW-1 for 72 hours in vitro. Cell viability was measured by MTT assay. […] Data from representative experiments with CLL cells from three different patients are shown. A total of 23 CLL blood samples were tested for sensitivity to OSW-1 in the same fashion.
(§2) 1. MTT Assays. For these assays either cancer cell lines were used. Alternatively, mononuclear cells from peripheral blood samples of CLL patients or normal donors were separated by Ficoll Hipaque fractionation and resuspended in DMEM complete medium. Malignant cells from various human cell lines (usually at 5×10^4 cells/ml) or mononuclear cells from peripheral blood of leukemia patients and healthy donors (1×10^6 cells/ml) were incubated in either αMEM or RPMI 1640 with or without various concentrations of OSW-1 in the range of 0-10 nM. Each experimental condition was done in triplicate. After the indicated number of days (usually 3 days or 72 hours) of exposure to OSW-1, cell survival was assessed by the addition of the MTT dye to the wells. The MTT dye changes its color depending on the presence of live cells in the well. Survival of cells under orsaponin treatment was evaluated as a percentage of control cell growth. Alternatively, one can also use the dye trypan-blue which penetrates dead cells thereby allowing one to count live cells under the microscope and estimating percentage survival.
Reduction of Cell Viability in CLL-Patient-Derived Cells. […] Freshly isolated primary CLL cells were incubated with the 0-100 nM OSW-1 for 72 hours in vitro and cell viability was measured by the MTT assay.
Cytotoxic activity of 17-deoxyorsaponin was also assessed in a number of patient samples. Primary human leukemia cells isolated from 11 patients with chronic lymphocytic leukemia (CLL) were analyzed for cytotoxic activity of 17-deoxyorsaponin. […]

Assay [1] relates to normal human astrocytes (immortalized with hTER). In words: MTT cell growth inhibition, normal astrocytes. Particulars: Astrocyte, 72 h. The assay is classed as cell-based. How it is done: as §2
To test the therapeutic selectivity of Orsaponin and 17-deoxyorsaponin, their effect on human brain tumor cells (U87 malignant glioma) and normal human astrocytes were compared. […] Cell growth inhibition was measured by MTT assay (FIG. 21).

Assay [2] has as its system HL-60 cells. In words: Mitochondrial transmembrane potential (rhodamine-123), HL-60. The assay is classed as cell-based, human. To be noted: HL-60, 0.5 nM. Here is the method: FIG. 10. Effect of Orsaponin (OSW-1) on Mitochondrial transmembrane potential HL-60 cells. The parental HL-60 line and its mutant with mitochondrial respiration defect, clone C6F, were incubated with 0.5 nM OSW-1 for the indicated times. Change in mitochondrial transmembrane potential was measured by cytometry analysis, using rhodamine-123 as a potential-sensitive fluorescent dye.
as §1
The effect of OSW-1 on mitochondrial transmembrane potential in HL-60 cells and C6F cells was also analyzed by incubating the cells with 0.5 nM OSW-1 for the 4, 16 and 24 hours. Change in mitochondrial transmembrane potential was measured by flow cytometry analysis, using rhodamine-123 as a potential-sensitive fluorescent dye and are depicted in FIG. 10.

In the next assay the test system is ML-1 leukemia cells. Briefly: MTT cell growth inhibition, ML-1. The format is cell-based, human. To be noted: Homo sapiens, 72 h, ML-1, 72 h. Here is the method: as §2
Anticancer activities of Orsaponin and 17-deoxyorsaponin were examined in human leukemia cells (ML-1) and human lymphoma cells (Raji). Cells were incubated with various concentrations of Orsaponin and 17-deoxyorsaponin for 72 h, and cell growth inhibition was measured by MTT assay.
The effect of 17-deoxyorsaponin in human ovarian cancer cells was determined. SKOV3 ovarian cancer cells were incubated with various concentrations of 17-deoxyorsaponin for 72 h. Cell growth inhibition was measured by MTT assay (FIG. 17). […] The effect of 17-deoxyorsaponin in human acute myeloid leukemia cells was also examined. ML-1 leukemia cells were incubated with various concentrations of 17-deoxyorsaponin for 72 h and cell growth inhibition was measured using the MTT assay (FIG. 18).

Assay [3] relates to normal human pulmonary cells. Particulars: Mimaki et al., 1997; read-out: IC50, toxicity to normal human pulmonary cells; cited from earlier work.
In assay [4] the test system is HL-60 cells. Briefly: MTT cell growth inhibition, HL-60. The assay is classed as cell-based. To be noted: Homo sapiens, HL-60, 72 hours. How it is done: FIG. 2. Effect of Orsaponin (OSW-1) on cell growth in two human cancer cell lines including a leukemia and a lymphoma cell line. HL-60 (leukemia) and Raji cells (lymphoma) in exponentially growing phase were treated with the indicated concentrations of OSW-1 for 72 hours. Cell growth inhibition was measured by MTT assay.
Cells and Cell Lines. Various cancer cell lines were used including the human leukemia cell lines HL-60 and ML-1 cells; human lymphoma cell line Raji; human pancreatic cancer cells AsPC-1; and human ovarian cancer cells SKOV3; human colon cancer cells HCT116; as well as isolated CLL cells from patients; and lymphocytes from normal donors. Cells were grown and maintained as per protocols known in the art using appropriate cell culture media and supplements.
1. MTT Assays. For these assays either cancer cell lines were used. Alternatively, mononuclear cells from peripheral blood samples of CLL patients or normal donors were separated by Ficoll Hipaque fractionation and resuspended in DMEM complete medium. […] After the indicated number of days (usually 3 days or 72 hours) of exposure to OSW-1, cell survival was assessed by the addition of the MTT dye to the wells. […] Survival of cells under orsaponin treatment was evaluated as a percentage of control cell growth. […]

With `COc1ccc(C(=O)OC2C(OC3C(O)COC(O[C@H]4C[C@H]5[C@@H]6CC=C7C[C@@H](O)CC[C@]7(C)[C@H]6CC[C@]5(C)[C@@]4(O)[C@H](C)C(=O)CCC(C)C)C3OC(C)=O)OCC(O)C2O)cc1` (stereo partly drawn) [OSW-1, 3β, 16β, 17 α-trihydroxycholost-5-en-22-one 16-O-(2-O-4-methoxybenzoyl-β-D-xylopyranosyl)-(1->3)-(2-O-acetyl-α-L-arabinopyranoside)], the entries for the “change in mitochondrial transmembrane potential” value in the assay on ML-1 cells, in the assay with HL-60 cells [2] (16-24 h) and with HL-60 cells [2] (4 h) were “substantial loss of mitochondrial transmembrane potential”, “substantial loss of mitochondrial transmembrane potential” and “did not cause a significant change in mitochondrial transmembrane potential”, respectively. The half-maximal inhibitory concentration (IC50) was 0.15 ± 0.26 nM in the assay on primary CLL cells (Homo sapiens, CLL cell, 72 h, primary CLL cells, 72 hours, MTT, mean of 23 patients, read-out: IC50, cell viability); around 1 nM in assay [1]; below 0.1 nM in the assay with ML-1 leukemia cells; 1500 nM in assay [3]; below 0.5 nM with HL-60 cells [4]. Moreover, in the assay with primary CLL cells (IC50 ratio of malignant/normal cells (CLL vs normal lymphocytes)), the “Selectivity Index” value is on record as 23.
